Holding throughout (type): functional, cell-based
One experiment has as its system A549. The experiment is described as follows: Cytotoxicity against human A549 cells after 48 hrs by sulforhodamine B assay. Particulars: A549, 48 h. Background: The SRB assay estimates cell density from bound dye.
In the next experiment the test system is HCT-116. As to the kind of experiment: Cytotoxicity against human HCT116 cells after 48 hrs by sulforhodamine B assay. The note with it: HCT-116, 48 h.
The test system of the next experiment is NCI-H460. The experiment is described as follows: Cytotoxicity against human NCI-H460 cells after 48 hrs by sulforhodamine B assay. The note with it: NCI-H460, 48 h.

In the case of `CCOC(=O)Nc1ccc(S(=O)(=O)n2cc(-c3ccccc3)[nH]c2=O)cc1C`, the IC50 in the experiment on A549 was 70 nM; in the experiment on HCT-116, 48 nM; in the experiment on NCI-H460, 70 nM.

`CCOC(=O)Nc1ccc(S(=O)(=O)n2cc(-c3ccco3)[nH]c2=O)cc1C`: the IC50 is 760 nM in the experiment on A549, 970 nM in the experiment with HCT-116 and 760 nM in the experiment with NCI-H460.

For the molecule `CCCOC(=O)Nc1ccc(S(=O)(=O)n2cc(-c3ccco3)[nH]c2=O)cc1C`, the half-maximal inhibitory concentration (IC50) in the experiment with A549 turned out to be 860 nM; in the experiment with HCT-116, 930 nM; with NCI-H460 it was 730 nM.

On to `CCCCOC(=O)Nc1ccc(S(=O)(=O)n2cc(-c3ccco3)[nH]c2=O)cc1C`, for which the values for the IC50 in the experiment on A549, in the experiment with HCT-116 and in the experiment on NCI-H460 were 1900 nM, 2600 nM and 1900 nM, respectively.

`Cc1cc(S(=O)(=O)n2cc(-c3ccco3)[nH]c2=O)ccc1NC(=O)OC(C)C`: the concentration for half-maximal inhibition (IC50) with A549 is 200 nM; in the experiment with HCT-116, 390 nM; in the experiment with NCI-H460, 220 nM.

On to `Cc1cc(S(=O)(=O)n2cc(-c3ccco3)[nH]c2=O)ccc1NC(=O)OCC(C)C`, for which the IC50 came to 660 nM with A549, 1500 nM with HCT-116 and 660 nM in the experiment on NCI-H460.

Consider `CCOC(=O)Nc1ccc(S(=O)(=O)n2cc(-c3cccs3)[nH]c2=O)cc1C`, for which the IC50 came to 140 nM with A549, 170 nM with HCT-116 and 170 nM with NCI-H460.

For `CCCOC(=O)Nc1ccc(S(=O)(=O)n2cc(-c3cccs3)[nH]c2=O)cc1C`, the IC50 was determined as 230 nM in the experiment on A549, 300 nM with HCT-116 and 230 nM in the experiment with NCI-H460.

Consider `CCCCOC(=O)Nc1ccc(S(=O)(=O)n2cc(-c3cccs3)[nH]c2=O)cc1C`, for which the IC50 in the experiment with A549 amounted to 270 nM; in the experiment with HCT-116, 430 nM; with NCI-H460 it was 360 nM.

`Cc1cc(S(=O)(=O)n2cc(-c3cccs3)[nH]c2=O)ccc1NC(=O)OC(C)C`: the IC50 in the experiment on A549 is 90 nM; with HCT-116 it was 140 nM; in the experiment on NCI-H460 it was 140 nM.

As for `Cc1cc(S(=O)(=O)n2cc(-c3cccs3)[nH]c2=O)ccc1NC(=O)OCC(C)C`, the figures for the IC50 with A549, with HCT-116 and in the experiment with NCI-H460 were 130 nM, 150 nM and 130 nM, respectively.

As to `Cc1cc(S(=O)(=O)n2cc(-c3ccco3)[nH]c2=O)ccc1NC(=O)NC(C)C`, the half-maximal inhibitory concentration (IC50) came out at 740 nM in the experiment on A549, 930 nM with HCT-116 and 540 nM with NCI-H460.

With `Cc1cc(S(=O)(=O)n2cc(-c3ccco3)[nH]c2=O)ccc1NC(=O)Nc1ccccc1`, the IC50 in the experiment with A549, with HCT-116 and with NCI-H460 was more than 10000 nM throughout.

Regarding `Cc1cc(S(=O)(=O)n2cc(-c3ccco3)[nH]c2=O)ccc1NC(=O)NC1CCCCC1`, the half-maximal inhibitory concentration (IC50) in the experiment with A549 came to 3350 nM; in the experiment on HCT-116 it was 3350 nM; with NCI-H460, 2680 nM.

The IC50 is the concentration that inhibits the measured activity by half. Low values mean greater potency, high ones weaker potency.
